From patent US20230391768A2, “IMIDAZOPYRIDINE DERIVATIVES AND AZA-IMIDAZOPYRIDINE DERIVATIVES AS JANUS KINASE 2 INHIBITORS AND USES THEREOF” (Dana-Farber Cancer Institute, Inc., priority 2018, published 2023)

How the values were obtained:
Assay in all cases: KINOMEscan
Format in all cases: binding
[1] = biological target: ABL1(F317I)-nonphosphorylated (Homo sapiens (Human), UniProt P00519, F317I); conditions: read-out: percent of control
Description: (§1) In vitro profiling of Compound I-2 (1 μM) was performed using the DiscoveRx KINOMEscan® platform.

[2] = biological target: ABL1(Y253F)-phosphorylated (Homo sapiens (Human), UniProt P00519, Y253F); conditions: read-out: percent of control
Description: as §1

ABL1-phosphorylated = ABL1-phosphorylated (Homo sapiens (Human), UniProt P00519); conditions: read-out: percent of control
Description: as §1

ADCK4 = ADCK4 (Homo sapiens (Human), UniProt Q96D53); conditions: read-out: percent of control
Description: as §1

AURKA = AURKA (Homo sapiens (Human), UniProt O14965); conditions: read-out: percent of control
Description: as §1

CAMK1G = CAMK1G (Homo sapiens (Human), UniProt Q96NX5); conditions: read-out: percent of control
Description: as §1

CSF1R-autoinhibited = CSF1R-autoinhibited (Homo sapiens (Human), UniProt P07333); conditions: read-out: percent of control
Description: as §1

CSNK1E = CSNK1E (Homo sapiens (Human), UniProt P49674); conditions: read-out: percent of control
Description: as §1

EGFR(G719S) = EGFR(G719S) (Homo sapiens (Human), UniProt P00533, G719S); conditions: read-out: percent of control
Description: as §1

EGFR(L747-T751del,Sins) = conditions: 1 μM
Description: as §1

EPHB4 = EPHB4 (Homo sapiens (Human), UniProt P54760); conditions: read-out: percent of control
Description: as §1

ERK8 = ERK8 (Homo sapiens (Human), UniProt Q8TD08); conditions: read-out: percent of control
Description: as §1

ERN1 = ERN1 (Homo sapiens (Human), UniProt O75460); conditions: read-out: percent of control
Description: as §1

FLT3 (D835H) = FLT3 (D835H) (Homo sapiens (Human), UniProt P36888, D835H); conditions: read-out: percent of control
Description: as §1

FLT3 (D835Y) = FLT3 (D835Y) (Homo sapiens (Human), UniProt P36888, D835Y); conditions: read-out: percent of control
Description: as §1

FLT3 (K663Q) = FLT3 (K663Q) (Homo sapiens (Human), UniProt P36888, K663Q); conditions: read-out: percent of control
Description: as §1

FLT3 (R834Q) = FLT3 (R834Q) (Homo sapiens (Human), UniProt P36888, R834Q); conditions: read-out: percent of control
Description: as §1

GSK3A = GSK3A (Homo sapiens (Human), UniProt P49840); conditions: read-out: percent of control
Description: as §1

IRAK4 = IRAK4 (Homo sapiens (Human), UniProt Q9NWZ3); conditions: read-out: percent of control
Description: as §1

KIT(V559D,T670I) = KIT(V559D,T670I) (Homo sapiens (Human), UniProt P10721, T670I/V559D); conditions: read-out: percent of control
Description: as §1

LCK = LCK (Homo sapiens (Human), UniProt P06239); conditions: read-out: percent of control
Description: as §1

LIMK2 = LIMK2 (Homo sapiens (Human), UniProt P53671); conditions: read-out: percent of control
Description: as §1

MAST1 = MAST1 (Homo sapiens (Human), UniProt Q9Y2H9); conditions: read-out: percent of control
Description: as §1

NEK4 = NEK4 (Homo sapiens (Human), UniProt P51957); conditions: read-out: percent of control
Description: as §1

PCTK1 = PCTK1 (Homo sapiens (Human), UniProt Q00536); conditions: read-out: percent of control
Description: as §1

PFPK5(P.falciparum) = PFPK5(P.falciparum) (Plasmodium falciparum (isolate 3D7), UniProt P61075); conditions: read-out: percent of control
Description: as §1

PIP5K1A = PIP5K1A (Homo sapiens (Human), UniProt Q99755); conditions: read-out: percent of control
Description: as §1

PRKCD = PRKCD (Homo sapiens (Human), UniProt Q05655); conditions: read-out: percent of control
Description: as §1

PRP4 = PRP4 (Homo sapiens (Human), UniProt Q13523); conditions: read-out: percent of control
Description: as §1

RAF1 = RAF1 (Homo sapiens (Human), UniProt P04049); conditions: read-out: percent of control
Description: as §1

RIPK1 = RIPK1 (Homo sapiens (Human), UniProt Q13546); conditions: read-out: percent of control
Description: as §1

SYK = SYK (Homo sapiens (Human), UniProt P43405); conditions: read-out: percent of control
Description: as §1

SgK110 = SgK110 (Homo sapiens (Human), UniProt P0C264); conditions: read-out: percent of control
Description: as §1

TAK1 = TAK1 (Homo sapiens (Human), UniProt O43318); conditions: read-out: percent of control
Description: as §1

TRKB = TRKB (Homo sapiens (Human), UniProt Q16620); conditions: read-out: percent of control
Description: as §1

ULK2 = ULK2 (Homo sapiens (Human), UniProt Q8IYT8); conditions: read-out: percent of control
Description: as §1

WEE2 = WEE2 (Homo sapiens (Human), UniProt P0C1S8); conditions: read-out: percent of control
Description: as §1

YSK4 = YSK4 (Homo sapiens (Human), UniProt Q56UN5); conditions: read-out: percent of control
Description: as §1

Chain of TRKB (Q16620 32-822): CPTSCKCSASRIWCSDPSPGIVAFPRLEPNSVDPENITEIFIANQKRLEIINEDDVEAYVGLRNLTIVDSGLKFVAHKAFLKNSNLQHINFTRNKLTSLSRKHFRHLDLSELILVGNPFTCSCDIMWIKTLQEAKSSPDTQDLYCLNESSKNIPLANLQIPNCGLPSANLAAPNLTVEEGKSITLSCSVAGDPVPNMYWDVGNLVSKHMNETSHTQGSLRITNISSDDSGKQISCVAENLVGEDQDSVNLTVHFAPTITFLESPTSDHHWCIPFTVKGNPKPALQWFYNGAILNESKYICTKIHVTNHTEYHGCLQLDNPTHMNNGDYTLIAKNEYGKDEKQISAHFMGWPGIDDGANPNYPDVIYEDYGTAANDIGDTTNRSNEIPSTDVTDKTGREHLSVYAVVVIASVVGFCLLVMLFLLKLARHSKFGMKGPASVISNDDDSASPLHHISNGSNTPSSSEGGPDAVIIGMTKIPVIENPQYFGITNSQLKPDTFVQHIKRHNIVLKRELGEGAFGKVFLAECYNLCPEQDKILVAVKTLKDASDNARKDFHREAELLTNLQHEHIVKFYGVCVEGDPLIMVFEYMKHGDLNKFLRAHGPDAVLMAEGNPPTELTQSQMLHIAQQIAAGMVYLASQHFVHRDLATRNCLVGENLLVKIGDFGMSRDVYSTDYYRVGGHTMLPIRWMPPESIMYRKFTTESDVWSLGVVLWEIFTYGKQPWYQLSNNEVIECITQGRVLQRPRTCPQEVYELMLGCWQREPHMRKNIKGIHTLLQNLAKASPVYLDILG
Chain of ULK2 (Q8IYT8 whole entry): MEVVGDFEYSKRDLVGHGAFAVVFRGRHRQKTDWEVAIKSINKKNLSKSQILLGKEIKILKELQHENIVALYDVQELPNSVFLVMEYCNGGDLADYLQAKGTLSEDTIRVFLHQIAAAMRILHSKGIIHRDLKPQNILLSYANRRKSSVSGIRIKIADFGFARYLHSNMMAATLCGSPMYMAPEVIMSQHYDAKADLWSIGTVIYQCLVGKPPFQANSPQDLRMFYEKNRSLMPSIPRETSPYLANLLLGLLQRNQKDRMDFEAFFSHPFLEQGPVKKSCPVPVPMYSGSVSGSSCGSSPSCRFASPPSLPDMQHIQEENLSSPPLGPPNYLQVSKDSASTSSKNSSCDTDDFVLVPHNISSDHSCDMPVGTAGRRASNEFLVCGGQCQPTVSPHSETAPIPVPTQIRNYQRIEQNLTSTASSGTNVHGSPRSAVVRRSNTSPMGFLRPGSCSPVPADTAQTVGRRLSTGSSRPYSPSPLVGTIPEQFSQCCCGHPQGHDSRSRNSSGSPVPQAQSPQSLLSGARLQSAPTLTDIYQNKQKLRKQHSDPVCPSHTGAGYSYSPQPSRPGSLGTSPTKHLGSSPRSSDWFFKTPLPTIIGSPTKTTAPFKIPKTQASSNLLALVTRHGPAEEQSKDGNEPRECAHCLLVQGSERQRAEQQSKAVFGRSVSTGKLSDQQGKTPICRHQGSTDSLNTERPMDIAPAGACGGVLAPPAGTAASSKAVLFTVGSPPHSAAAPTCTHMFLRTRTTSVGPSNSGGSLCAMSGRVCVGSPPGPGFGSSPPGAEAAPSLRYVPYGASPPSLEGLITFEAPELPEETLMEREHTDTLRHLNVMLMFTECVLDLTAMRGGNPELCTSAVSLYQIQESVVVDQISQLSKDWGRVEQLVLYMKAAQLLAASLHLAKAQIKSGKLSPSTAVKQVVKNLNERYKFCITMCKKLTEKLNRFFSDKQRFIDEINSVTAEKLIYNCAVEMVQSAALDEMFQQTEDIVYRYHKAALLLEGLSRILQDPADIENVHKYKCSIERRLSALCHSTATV
Chain of ERN1 (O75460 19-977): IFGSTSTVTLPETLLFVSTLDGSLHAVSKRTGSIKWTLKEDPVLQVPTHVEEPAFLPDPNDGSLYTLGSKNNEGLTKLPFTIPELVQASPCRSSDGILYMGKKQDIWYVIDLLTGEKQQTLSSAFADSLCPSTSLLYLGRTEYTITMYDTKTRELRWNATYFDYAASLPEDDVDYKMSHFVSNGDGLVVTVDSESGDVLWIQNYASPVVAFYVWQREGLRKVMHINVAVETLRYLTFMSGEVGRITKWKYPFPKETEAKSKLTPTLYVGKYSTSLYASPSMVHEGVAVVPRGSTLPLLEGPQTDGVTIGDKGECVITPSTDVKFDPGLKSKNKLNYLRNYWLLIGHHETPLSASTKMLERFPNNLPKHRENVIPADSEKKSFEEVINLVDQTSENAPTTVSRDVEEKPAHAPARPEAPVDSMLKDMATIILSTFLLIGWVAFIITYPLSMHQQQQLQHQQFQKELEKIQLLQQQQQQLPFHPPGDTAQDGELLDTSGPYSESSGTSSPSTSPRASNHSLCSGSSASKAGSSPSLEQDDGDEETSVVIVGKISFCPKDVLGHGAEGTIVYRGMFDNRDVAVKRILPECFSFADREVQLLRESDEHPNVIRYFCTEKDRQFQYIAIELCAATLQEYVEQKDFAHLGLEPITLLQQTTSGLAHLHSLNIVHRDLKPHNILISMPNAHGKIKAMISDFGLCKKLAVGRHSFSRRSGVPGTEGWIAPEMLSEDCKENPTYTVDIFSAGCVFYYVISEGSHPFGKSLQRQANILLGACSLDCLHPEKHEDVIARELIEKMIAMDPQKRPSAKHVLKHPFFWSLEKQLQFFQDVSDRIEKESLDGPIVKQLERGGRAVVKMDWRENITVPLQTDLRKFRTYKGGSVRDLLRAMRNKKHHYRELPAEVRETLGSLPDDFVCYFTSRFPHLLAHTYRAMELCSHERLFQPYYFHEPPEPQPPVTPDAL
Chain of PIP5K1A (Q99755 whole entry): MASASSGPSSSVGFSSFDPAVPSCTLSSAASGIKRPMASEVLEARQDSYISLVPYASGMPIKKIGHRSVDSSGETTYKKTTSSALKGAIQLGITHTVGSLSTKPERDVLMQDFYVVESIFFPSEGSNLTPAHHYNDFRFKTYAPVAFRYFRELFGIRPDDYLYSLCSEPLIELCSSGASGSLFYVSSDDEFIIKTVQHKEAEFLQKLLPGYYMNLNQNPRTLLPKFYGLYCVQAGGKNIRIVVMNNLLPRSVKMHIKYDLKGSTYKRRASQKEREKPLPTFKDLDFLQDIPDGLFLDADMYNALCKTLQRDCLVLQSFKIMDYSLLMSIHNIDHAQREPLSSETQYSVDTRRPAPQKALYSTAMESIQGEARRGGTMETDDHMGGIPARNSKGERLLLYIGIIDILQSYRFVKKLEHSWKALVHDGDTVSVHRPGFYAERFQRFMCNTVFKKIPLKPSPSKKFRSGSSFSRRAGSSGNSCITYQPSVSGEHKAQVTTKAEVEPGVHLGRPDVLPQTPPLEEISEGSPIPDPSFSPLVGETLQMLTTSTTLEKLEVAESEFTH
Chain of SgK110 (P0C264 whole entry): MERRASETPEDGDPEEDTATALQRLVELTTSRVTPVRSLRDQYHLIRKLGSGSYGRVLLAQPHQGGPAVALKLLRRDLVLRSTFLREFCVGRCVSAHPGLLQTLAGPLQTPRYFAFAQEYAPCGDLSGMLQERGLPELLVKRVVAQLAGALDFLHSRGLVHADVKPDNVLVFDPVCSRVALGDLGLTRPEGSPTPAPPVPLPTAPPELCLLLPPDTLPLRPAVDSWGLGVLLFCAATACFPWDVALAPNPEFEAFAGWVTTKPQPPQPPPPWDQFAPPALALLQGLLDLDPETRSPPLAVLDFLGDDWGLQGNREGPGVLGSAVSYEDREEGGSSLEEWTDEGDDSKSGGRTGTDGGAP
Chain of EGFR(G719S) (P00533 25-1210 G719S): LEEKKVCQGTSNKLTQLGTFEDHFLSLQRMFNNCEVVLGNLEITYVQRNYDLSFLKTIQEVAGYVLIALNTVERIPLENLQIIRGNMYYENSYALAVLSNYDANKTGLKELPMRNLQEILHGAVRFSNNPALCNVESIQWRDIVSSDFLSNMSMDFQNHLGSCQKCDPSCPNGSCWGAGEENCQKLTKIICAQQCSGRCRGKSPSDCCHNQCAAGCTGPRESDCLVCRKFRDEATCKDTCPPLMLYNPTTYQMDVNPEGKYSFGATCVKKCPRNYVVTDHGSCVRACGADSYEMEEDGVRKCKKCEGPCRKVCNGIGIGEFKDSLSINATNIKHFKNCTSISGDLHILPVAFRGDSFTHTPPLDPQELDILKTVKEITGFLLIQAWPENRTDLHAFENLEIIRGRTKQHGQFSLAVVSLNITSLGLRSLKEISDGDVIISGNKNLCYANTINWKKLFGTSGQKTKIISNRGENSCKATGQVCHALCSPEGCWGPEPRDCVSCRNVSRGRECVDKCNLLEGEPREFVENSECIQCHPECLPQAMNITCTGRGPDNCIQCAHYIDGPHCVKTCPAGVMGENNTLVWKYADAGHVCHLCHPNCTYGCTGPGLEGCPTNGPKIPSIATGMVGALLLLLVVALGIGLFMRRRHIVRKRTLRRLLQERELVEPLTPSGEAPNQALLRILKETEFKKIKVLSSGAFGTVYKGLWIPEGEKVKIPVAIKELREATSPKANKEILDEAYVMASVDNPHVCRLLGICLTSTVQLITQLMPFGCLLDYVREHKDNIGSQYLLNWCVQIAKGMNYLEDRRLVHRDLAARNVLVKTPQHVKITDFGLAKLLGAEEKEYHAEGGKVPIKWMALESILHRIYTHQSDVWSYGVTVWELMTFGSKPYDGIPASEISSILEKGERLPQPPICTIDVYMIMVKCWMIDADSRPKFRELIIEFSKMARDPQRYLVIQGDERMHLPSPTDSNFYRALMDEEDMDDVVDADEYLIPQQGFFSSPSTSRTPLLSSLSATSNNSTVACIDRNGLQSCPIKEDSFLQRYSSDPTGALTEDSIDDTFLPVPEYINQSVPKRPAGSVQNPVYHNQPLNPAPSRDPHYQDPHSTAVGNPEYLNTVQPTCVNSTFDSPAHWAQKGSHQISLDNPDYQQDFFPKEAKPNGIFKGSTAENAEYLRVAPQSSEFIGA

| Structure (SMILES) | remaining binding at 1 µM [1] [%] | remaining binding at 1 µM [2] [%] | remaining binding at 1 µM (ABL1-phosphorylated) [%] | remaining binding at 1 µM (ADCK4) [%] | remaining binding at 1 µM (AURKA) [%] | remaining binding at 1 µM (CAMK1G) [%] | remaining binding at 1 µM (CSF1R-autoinhibited) [%] | remaining binding at 1 µM (CSNK1E) [%] | remaining binding at 1 µM (EGFR(G719S)) [%] | percent of control (EGFR(L747-T751del,Sins)) [%] | remaining binding at 1 µM (EPHB4) [%] | remaining binding at 1 µM (ERK8) [%] | remaining binding at 1 µM (ERN1) [%] | remaining binding at 1 µM (FLT3 (D835H)) [%] | remaining binding at 1 µM (FLT3 (D835Y)) [%] | remaining binding at 1 µM (FLT3 (K663Q)) [%] | remaining binding at 1 µM (FLT3 (R834Q)) [%] | remaining binding at 1 µM (GSK3A) [%] | remaining binding at 1 µM (IRAK4) [%] | remaining binding at 1 µM (KIT(V559D,T670I)) [%] | also measured |
| --- | --- | --- | --- | --- | --- | --- | --- | --- | --- | --- | --- | --- | --- | --- | --- | --- | --- | --- | --- | --- | --- |
| CCN1CCN(Cc2cc(NC(=O)c3ccc(C)c(-c4ccc5nc(NC(=O)C6CC6)cn5n4)c3)cc(C(F)(F)F)c2)CC1 [Compound I-2, 3-(2-(cyclopropanecarboxamido)imidazo[1,2-b]pyridazin-6-yl)-N-(3-((4-ethylpiperazin-1-yl)methyl)-5-(trifluoromethyl)phenyl)-4-methylbenzamide] | 0 | 0 | 0.1 | 75 | 64 | 85 | 25 | 86 | 45 | 29 | 1.3 | 2.2 | 84 | 2.2 | 23 | 5.6 | 1.5 | 43 | 26 | 6.6 | remaining binding at 1 µM (LCK): 0%; remaining binding at 1 µM (LIMK2): 96%; remaining binding at 1 µM (MAST1): 94%; remaining binding at 1 µM (NEK4): 28%; remaining binding at 1 µM (PCTK1): 16%; remaining binding at 1 µM (PFPK5(P.falciparum)): 91%; remaining binding at 1 µM (PIP5K1A): 100%; remaining binding at 1 µM (PRKCD): 40%; remaining binding at 1 µM (PRP4): 87%; remaining binding at 1 µM (RAF1): 13%; remaining binding at 1 µM (RIPK1): 0.45%; remaining binding at 1 µM (SYK): 1.9%; remaining binding at 1 µM (SgK110): 75%; remaining binding at 1 µM (TAK1): 1.1%; remaining binding at 1 µM (TRKB): 0.05%; remaining binding at 1 µM (ULK2): 100%; remaining binding at 1 µM (WEE2): 100%; remaining binding at 1 µM (YSK4): 30% |
| CCN1CCN(Cc2cc(NC(=O)c3ccc(C)c(-c4ccc5nc(NC(=O)C6CC6)cn5c4)c3)cc(C(F)(F)F)c2)CC1 [Compound I-6, 3-(2-(cyclopropanecarboxamido)imidazo[1,2-a]pyridin-6-yl)-N-(3-((4-ethylpiperazin-1-yl)methyl)-5-(trifluoromethyl)phenyl)-4-methylbenzamide] | 0 | 0.1 | 0.1 | 91 | 94 | 100 | 49 | 93 | 35 | 12 | 0 | 3.1 | 78 | 2 | 27 | 4.2 | 2.1 | 68 | 33 | 5.5 | remaining binding at 1 µM (LCK): 0.1%; remaining binding at 1 µM (LIMK2): 100%; remaining binding at 1 µM (MAST1): 95%; remaining binding at 1 µM (NEK4): 15%; remaining binding at 1 µM (PCTK1): 28%; remaining binding at 1 µM (PFPK5(P.falciparum)): 77%; remaining binding at 1 µM (PIP5K1A): 100%; remaining binding at 1 µM (PRKCD): 48%; remaining binding at 1 µM (PRP4): 100%; remaining binding at 1 µM (RAF1): 18%; remaining binding at 1 µM (RIPK1): 0.75%; remaining binding at 1 µM (SYK): 0.65%; remaining binding at 1 µM (SgK110): 57%; remaining binding at 1 µM (TAK1): 2.7%; remaining binding at 1 µM (TRKB): 0%; remaining binding at 1 µM (ULK2): 100%; remaining binding at 1 µM (WEE2): 95%; remaining binding at 1 µM (YSK4): 29% |
